Each structure is given as a SMILES string. Bounds are passed on as bounds.

The term IC50 denotes the concentration that gives 50% inhibition.

The experiment deals with T1, Cholesteryl ester transfer protein (Homo sapiens, UniProt P11597).
T1 sequence (P11597 whole entry): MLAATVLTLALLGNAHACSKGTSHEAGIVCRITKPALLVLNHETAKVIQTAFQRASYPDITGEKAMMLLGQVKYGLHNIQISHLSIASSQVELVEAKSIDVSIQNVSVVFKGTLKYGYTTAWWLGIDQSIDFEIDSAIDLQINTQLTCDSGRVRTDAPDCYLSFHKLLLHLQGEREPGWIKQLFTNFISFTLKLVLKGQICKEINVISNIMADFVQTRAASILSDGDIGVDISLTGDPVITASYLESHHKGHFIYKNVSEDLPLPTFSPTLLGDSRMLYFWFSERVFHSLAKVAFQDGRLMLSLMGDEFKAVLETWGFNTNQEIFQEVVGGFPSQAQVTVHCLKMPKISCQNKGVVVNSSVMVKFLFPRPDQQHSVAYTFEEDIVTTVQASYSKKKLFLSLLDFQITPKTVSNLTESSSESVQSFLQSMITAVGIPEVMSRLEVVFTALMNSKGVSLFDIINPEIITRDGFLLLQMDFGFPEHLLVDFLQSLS
Nature of the experiment: Inhibition of CETP in human plasma assessed as reduction in fluorescent intensity by fluorescence analysis.

As to `CC[C@@H]1C[C@H](N(Cc2cc(Cl)cc(C(F)(F)F)c2)c2nnn(C)n2)c2nc(C(F)(F)F)ccc2N1C(=O)OC(C)C`, the IC50 was 20 nM.

As to `CC[C@@H]1C[C@H](N(Cc2cc(C(F)(F)F)cc(C(F)(F)F)c2)C(C)=O)c2nc(N(C)C)ccc2N1C(=O)OC(C)C` (racemic), the IC50 stood at 948 nM.

For `CC[C@@H]1C[C@H](N(Cc2cc(C(F)(F)F)cc(C(F)(F)F)c2)c2nnn(C)n2)c2nc(C(F)(F)F)ccc2N1C(=O)c1c(C)cnn1C`, the IC50 is 193 nM.

With `CC[C@@H]1C[C@H](N(Cc2cc(C(F)(F)F)cc(C(F)(F)F)c2)c2nnn(C)n2)c2nc(C)ccc2N1C(=O)OC(C)C` (racemic), the half-maximal inhibitory concentration (IC50) worked out at 61 nM.

In the case of `CC[C@@H]1C[C@H](N(Cc2cc(C(F)(F)F)cc(C(F)(F)F)c2)c2nnn[nH]2)c2nc(C(F)(F)F)ccc2N1C(=O)OC(C)C` (racemic), the IC50 was greater than 50000 nM.

Consider `CC[C@@H]1C[C@H](N(Cc2cc(C(F)(F)F)cc(C(F)(F)F)c2)c2nnn(C)n2)c2nc(C(F)(F)F)ccc2N1C(=O)OC`, for which the half-inhibitory concentration (IC50) came out at 197 nM.

On to `CC[C@@H]1C[C@H](N(Cc2cc(C(F)(F)F)cc(C(F)(F)F)c2)c2nnn(C)n2)c2nc(Br)ccc2N1C(=O)OC(C)C` (racemic), for which the IC50 was 47 nM.

On to `CC[C@@H]1C[C@H](N(Cc2cc(C(F)(F)F)cc(C(F)(F)F)c2)c2cc(C)n[nH]2)c2nc(C(F)(F)F)ccc2N1C(=O)OC(C)C` (racemic), for which the IC50 was found to be 203 nM.

For `CC[C@@H]1C[C@H](N(C#N)Cc2cc(C(F)(F)F)cc(C(F)(F)F)c2)c2nc(C(F)(F)F)ccc2N1C(=O)OC(C)C` (racemic), the 50% inhibitory concentration (IC50) is greater than 5000 nM.

Turning to `CC[C@@H]1C[C@H](N(Cc2cc(C(F)(F)F)cc(C(F)(F)F)c2)c2nnn(C)n2)c2nc(N(C)C)ccc2N1C(=O)OC(C)C`, the half-maximal inhibitory concentration (IC50) is 31 nM.

Regarding `CC[C@@H]1C[C@H](N(Cc2cc(C(F)(F)F)cc(C(F)(F)F)c2)c2nnn(C)n2)c2nc(N)ccc2N1C(=O)OC(C)C`, the IC50 was 98 nM.

For `CC[C@@H]1C[C@H](N(Cc2cc(C(F)(F)F)cc(C(F)(F)F)c2)c2cc(C)no2)c2nc(C(F)(F)F)ccc2N1C(=O)OC(C)C` (racemic), the half-inhibitory concentration (IC50) was 154 nM.

As for `CCCC(=O)N1c2ccc(C(F)(F)F)nc2[C@@H](N(Cc2cc(C(F)(F)F)cc(C(F)(F)F)c2)c2nnn(C)n2)C[C@H]1CC`, the half-inhibitory concentration (IC50) was found to be 114 nM.

Turning to `CC[C@@H]1C[C@H](N(Cc2cc(C(F)(F)F)cc(C(F)(F)F)c2)c2nnn(C)n2)c2nc(C(F)(F)F)ccc2N1CCC(C)C`, the IC50 is 825 nM.

With `CC[C@@H]1C[C@H](N(Cc2cc(F)cc(C(F)(F)F)c2)c2nnn(C)n2)c2nc(C)ccc2N1C(=O)OC(C)C`, the IC50 amounted to 30 nM.

Turning to `CC[C@H]1C[C@@H](N(Cc2cc(C(F)(F)F)cc(C(F)(F)F)c2)c2nnn(C)n2)c2nc(C)ccc2N1C(=O)OC(C)C`, the IC50 turned out to be 50000 nM.

As to `CC[C@@H]1C[C@H](N(Cc2cc(C(F)(F)F)cc(C(F)(F)F)c2)C(C)=O)c2nc(Br)ccc2N1C(=O)OC(C)C` (racemic), the IC50 was determined as 1300 nM.

Turning to `CC[C@@H]1C[C@H](N(Cc2cc(C(F)(F)F)cc(C(F)(F)F)c2)C(C)=O)c2nc(C)ccc2N1C(=O)OC(C)C` (racemic), the half-inhibitory concentration (IC50) is 980 nM.

Take `CC[C@@H]1C[C@H](N(Cc2cc(C(F)(F)F)cc(C(F)(F)F)c2)c2nnn(C)n2)c2nc(N)c(C)cc2N1C(=O)OC(C)C` (racemic): the IC50 turned out to be 106 nM.

`CC[C@@H]1C[C@H](N(Cc2cc(C(F)(F)F)cc(C(F)(F)F)c2)c2nnn(C)n2)c2nc(C(F)(F)F)ccc2N1C(=O)C(C)C`: the IC50 came out at 55 nM.

`CC[C@@H]1C[C@H](N(Cc2cc(C(F)(F)F)cc(C(F)(F)F)c2)c2nnn(C)n2)c2nc(OC)c(C)cc2N1C(=O)OC(C)C` (racemic): the 50% inhibitory concentration (IC50) came out at 38.4 nM.

Take `CC[C@@H]1C[C@H](N(Cc2cc(C(F)(F)F)cc(C(F)(F)F)c2)c2nnn(C)n2)c2nc(C(F)(F)F)ccc2N1C(=O)OCCO`: the half-inhibitory concentration (IC50) stood at 108 nM.

For `CC[C@@H]1C[C@H](N(Cc2cc(C(F)(F)F)cc(C(F)(F)F)c2)c2nnn(C)n2)c2nc(C(F)(F)F)ccc2N1C(=O)OCCN1CCN(C)CC1`, the IC50 stood at 5730 nM.

For the compound `CCC1CC(N(Cc2cc(C(F)(F)F)cc(C(F)(F)F)c2)C(C)=O)c2sccc2N1C(=O)OC(C)C` (centres undefined), the half-maximal inhibitory concentration (IC50) stood at 46000 nM.

Regarding `CC[C@@H]1C[C@H](N(Cc2cc(C(F)(F)F)cc(C(F)(F)F)c2)c2nnnn2C)c2nc(C(F)(F)F)ccc2N1C(=O)OC(C)C` (racemic), the IC50 was greater than 50000 nM.

Turning to `CC[C@@H]1C[C@H](N(Cc2cc(C(F)(F)F)cc(C(F)(F)F)c2)c2nnn(C)n2)c2nc(N3CCNCC3)ccc2N1C(=O)OC(C)C`, the 50% inhibitory concentration (IC50) is greater than 50000 nM.

`CC[C@@H]1C[C@H](N(Cc2cc(C#N)cc(C(F)(F)F)c2)c2nnn(C)n2)c2nc(C)ccc2N1C(=O)OC(C)C`: the IC50 is 21 nM.

For the compound `CCNc1ccc2c(n1)[C@@H](N(Cc1cc(C(F)(F)F)cc(C(F)(F)F)c1)c1nnn(C)n1)C[C@@H](CC)N2C(=O)OC(C)C`, the IC50 is 591 nM.

Regarding `CC[C@@H]1C[C@H](N(Cc2cc(C(F)(F)F)cc(C(F)(F)F)c2)C(C)=O)c2nc(OC)ccc2N1C(=O)OC(C)C` (racemic), the half-maximal inhibitory concentration (IC50) is 487 nM.

As for `CC[C@@H]1C[C@H](N(Cc2cc(C(F)(F)F)cc(C(F)(F)F)c2)c2nnn(CCO)n2)c2nc(C(F)(F)F)ccc2N1C(=O)OC(C)C` (racemic), the concentration for half-maximal inhibition (IC50) was determined as 44 nM.

As for `CCOC(=O)N1c2c(C)cc(C(F)(F)F)nc2[C@@H](N(Cc2cc(C(F)(F)F)cc(C(F)(F)F)c2)c2nnn(C)n2)C[C@H]1CC` (racemic), the 50% inhibitory concentration (IC50) was determined as 24 nM.

For the compound `CC(=O)N(Cc1cc(C(F)(F)F)cc(C(F)(F)F)c1)[C@H]1C[C@@H](C)N(C(=O)OC(C)C)c2ccc(C(F)(F)F)nc21` (racemic), the IC50 was found to be 1050 nM.

Regarding `CC[C@@H]1C[C@H](N(Cc2cc(C(F)(F)F)cc(C(F)(F)F)c2)c2noc(C)n2)c2nc(C(F)(F)F)ccc2N1C(=O)OC(C)C` (racemic), the IC50 was determined as 74 nM.

`CCC1CC(N(Cc2cc(C(F)(F)F)cc(C(F)(F)F)c2)C(C)=O)c2ccc(C)nc2N1C(=O)OC(C)C` (centres undefined): the half-maximal inhibitory concentration (IC50) was 44100 nM.

In the case of `CC[C@@H]1C[C@H](N(Cc2cc(Cl)cc(C(F)(F)F)c2)c2nnn(C)n2)c2nc(C)ccc2N1C(=O)OC(C)C`, the 50% inhibitory concentration (IC50) was 12 nM.

With `CC[C@@H]1C[C@H](N(Cc2cc(C(F)(F)F)cc(C(F)(F)F)c2)c2nnn(C)n2)c2nc(NC)ccc2N1C(=O)OC(C)C`, the IC50 was 142 nM.

Turning to `CC[C@@H]1C[C@H](N(Cc2cc(C(F)(F)F)cc(C(F)(F)F)c2)c2nnn(C)n2)c2nc(C(F)(F)F)ccc2N1C(=O)OC1CCOCC1`, the IC50 amounted to 66 nM.

In the case of `CC[C@@H]1C[C@H](N(Cc2cc(C(F)(F)F)cc(C(F)(F)F)c2)c2nnn(C)n2)c2nc(C(F)(F)F)ccc2N1CC(C)C`, the IC50 was determined as 205 nM.

As to `CC[C@@H]1C[C@H](N(Cc2cc(C(F)(F)F)cc(C(F)(F)F)c2)c2nnn(C)n2)c2nc(C(F)(F)F)ccc2N1C(=O)OCCN(C)C`, the half-maximal inhibitory concentration (IC50) turned out to be 572 nM.

For `CCOC(=O)N1c2ccc(C(F)(F)F)nc2[C@@H](N(Cc2cc(C(F)(F)F)cc(C(F)(F)F)c2)c2nnn(C)n2)C[C@H]1CC`, the IC50 was 29 nM.

Consider `CC(=O)N(Cc1cc(C(F)(F)F)cc(C(F)(F)F)c1)[C@H]1C[C@@H](C2CC2)N(C(=O)OC(C)C)c2ccc(C(F)(F)F)nc21` (racemic), for which the IC50 stood at 980 nM.

For the compound `CC[C@@H]1C[C@H](N(Cc2cc(C(F)(F)F)cc(C(F)(F)F)c2)C(C)=O)c2nc(C(F)(F)F)ccc2N1C(=O)OC(C)C` (racemic), the IC50 was found to be 396 nM.

In the case of `CC[C@@H]1C[C@H](N(Cc2cc(C(F)(F)F)cc(C(F)(F)F)c2)c2nnn(C)n2)c2nc(C(F)(F)F)ccc2N1C(=O)OCCN1CCOCC1`, the 50% inhibitory concentration (IC50) was determined as 2110 nM.

Take `CC[C@@H]1C[C@H](N(Cc2cc(Cl)cc(Cl)c2)c2nnn(C)n2)c2nc(C)ccc2N1C(=O)OC(C)C`: the IC50 was determined as 24 nM.

In the case of `Cc1cc(C)c2c(c1)[C@@H](N(Cc1cc(C(F)(F)F)cc(C(F)(F)F)c1)c1nnn(C)n1)CCCN2C[C@H]1CC[C@H](C(=O)O)CC1` [EVACETRAPIB], the IC50 was determined as 26 nM.

As for `CC[C@@H]1C[C@H](N(Cc2cc(C(F)(F)F)cc(C(F)(F)F)c2)c2nnn(C)n2)c2nc(OC)ccc2N1C(=O)OC(C)C` (racemic), the half-inhibitory concentration (IC50) was found to be 134 nM.

Regarding `CC[C@@H]1C[C@H](N(Cc2cc(C(F)(F)F)cc(C(F)(F)F)c2)c2nnn(C)n2)c2nc(C(F)(F)F)ccc2N1C(=O)OCC(C)(C)C(=O)O`, the IC50 is 139 nM.

For `CC[C@@H]1C[C@H](N(Cc2cc(C(F)(F)F)cc(C(F)(F)F)c2)c2nnn(C)n2)c2nc(C(F)(F)F)ccc2N1C(=O)OCCc1nn[nH]n1`, the 50% inhibitory concentration (IC50) was found to be 488 nM.

As to `CC[C@@H]1C[C@H](N(Cc2cc(C(F)(F)F)cc(C(F)(F)F)c2)c2nnn(C)n2)c2nc(N3CCOCC3)ccc2N1C(=O)OC(C)C`, the IC50 was 25000 nM.

As for `CC[C@@H]1C[C@H](N(Cc2cc(C(F)(F)F)cc(C(F)(F)F)c2)c2nnn(CCN)n2)c2nc(C(F)(F)F)ccc2N1C(=O)OC(C)C` (racemic), the IC50 came out at 66 nM.

As to `CC[C@@H]1C[C@H](N(Cc2cc(C(F)(F)F)cc(C(F)(F)F)c2)c2nnn(C)n2)c2nc(N3CCCC3)ccc2N1C(=O)OC(C)C`, the IC50 is 471 nM.

Consider `CC[C@@H]1C[C@H](N(Cc2cc(Cl)cc(Cc3cncc(C(F)(F)F)c3)c2)c2nnn(C)n2)c2nc(C(F)(F)F)ccc2N1C(=O)OC(C)C`, for which the IC50 amounted to 207 nM.

For the compound `CC[C@H]1C[C@@H](N(Cc2cc(C(F)(F)F)cc(C(F)(F)F)c2)c2nnn(C)n2)c2nc(C(F)(F)F)ccc2N1C(=O)OC(C)C`, the IC50 turned out to be 7420 nM.

Consider `CC[C@@H]1C[C@H](N(Cc2cc(C(F)(F)F)cc(C(F)(F)F)c2)c2nnn(C)n2)c2nc(C(F)(F)F)ccc2N1C(=O)OC(C)C` (racemic), for which the IC50 is 49 nM.

For the origin of these results see ChEMBL document CHEMBL2016576, “Design, synthesis and structure-activity-relationship of 1,5-tetrahydronaphthyridines as CETP inhibitors” (Bioorg Med Chem Lett, 2012).
